Consider 4 compounds from patent US11206830B2, “Herbicidal composition comprising glufosinate or a salt thereof and pyroxasulfone” (BASF SE, priority 2008, dated 2021).

Several values for one entry are separate records, joined by “and”; a condition that tells them apart may be missing. Equal entries are not always repeated. Where two headings read alike, the source gives them in different places.

What all share (assay type): in vivo
One assay concerns Setaria viridis (SETVI). Briefly: greenhouse post-emergence herbicidal activity on SETVI. To be noted: 480 h, read-out: % activity 20 DAT. An excerpt:
(§1) For the post-emergence treatment, the test plants were first grown to a height of 3 to 20 cm, depending on the plant habit, and only then treated. Here, the herbicidal compositions were suspended or emulsified in water as distribution medium and sprayed using finely distributing nozzles.
(§2) The respective herbicides B and/or safener were formulated as 10% by weight strength suspension concentrate and introduced to the spray liquor with the amount of solvent system used for applying the active compound. Herbicides A, C and/or safener were used as commercially available formulations and introduced to the spray liquor with the amount of solvent system used for applying the active compound. In the examples, the solvent used was water.
(§3) The test period extended over 21 days. During this time, the plants were tended, and their response to the treatments with active compound was evaluated.
(§4) The evaluation for the damage caused by the chemical compositions was carried out using a scale from 0 to 100%, compared to the untreated control plants. […]
(§5) The value E, which is to be expected if the activity of the individual compounds is just additive, was calculated using the method of S. R. Colby (1967) “Calculating synergistic and antagonistic responses of herbicide combinations”, Weeds 15, p. […] For two component mixtures the value E was calculated by the following formula E=X+Y−(X·Y/100)
(§6) For three component mixtures the value E was calculated by the following formula E=X+Y+Z−(XY+XZ+YZ)/100+(X·YZ/10000) where X=effect in percent using herbicide A at an application rate a; • Y=effect in percent using herbicide B at an application rate b; • Z=effect in percent using herbicide C at an application rate c; • E=expected effect (in %) of A+B at application rates a+b. or • E=expected effect (in %) of A+B+C at application rates a+b+c.
(§7) If the value observed in this manner is higher than the value E calculated according to Colby, a synergistic effect is present.
(§8) Tables 1 to 12 relate to the herbicidal activity of the individual actives and of their combinations in post-emergence application assessed 20 DAT.

In assay [1] the test system is Echinochloa crus-galli (ECHCG). Briefly: greenhouse post-emergence herbicidal activity on ECHCG.
Description: as §1, §2, §3, §4, §5, §6, §7, §8

Assay [2] relates to Polygonum convolvulus (POLCO). The assay is described as follows: greenhouse post-emergence herbicidal activity on POLCO.
Description: as §1, §2, §3
(§9) The evaluation for the damage caused by the chemical compositions was carried out using a scale from 0 to 100%, compared to the untreated control plants. Here, 0 means no damage and 100 means complete destruction of the plants.
(§10) The value E, which is to be expected if the activity of the individual compounds is just additive, was calculated using the method of S. R. Colby (1967) “Calculating synergistic and antagonistic responses of herbicide combinations”, Weeds 15, p. 22 ff. For two component mixtures the value E was calculated by the following formula E=X+Y−(X·Y/100)
as §6, §7, §8

The subject of assay [3] is Alopecurus myosuroides (ALOMY). The assay is described as follows: greenhouse post-emergence herbicidal activity on ALOMY.
Description: as §1, §2, §3, §9, §10, §6, §7, §8

The subject of another assay is Galium aparine (GALAP). Briefly: greenhouse post-emergence herbicidal activity on GALAP. The note with it: solo application.
Description: as §1, §2, §3, §9, §10, §6, §7, §8

Assay [4] deals with Digitaria sanguinalis (DIGSA). The assay is described as follows: greenhouse post-emergence herbicidal activity on DIGSA.
Description: as §1, §2, §3, §9, §10, §6, §7, §8

The next assay concerns Avena fatua (AVEFA). The assay is described as follows: greenhouse post-emergence herbicidal activity on AVEFA. The note with it: 480 h, read-out: % activity 20 DAT.
Description: as §1, §2, §3, §9, §10, §6, §7, §8

Assay [5] concerns Abutilon theophrasti (ABUTH). The assay is described as follows: greenhouse post-emergence herbicidal activity on ABUTH.
Description: as §1, §2, §3, §9, §10, §6, §7, §8

The subject of assay [6] is Matricaria inermis (MATIN). Briefly: greenhouse post-emergence herbicidal activity on MATIN.
Description: as §1, §2, §3, §9, §10, §6, §7, §8

Assay [7] deals with Amaranthus retroflexus (AMARE). Briefly: greenhouse post-emergence herbicidal activity on AMARE. To be noted: 480 h, read-out: % activity 20 DAT.
Description: as §1, §2, §3, §4, §5, §6, §7, §8

Assay [8] deals with Chenopodium album (CHEAL). The assay is described as follows: greenhouse post-emergence herbicidal activity on CHEAL.
Description: as §1, §2, §3, §9, §10, §6, §7, §8

Assay [9] concerns Lolium multiflorum (LOLMU). The assay is described as follows: greenhouse post-emergence herbicidal activity on LOLMU.
Description: as §1, §2, §3, §9, §10, §6, §7, §8

The subject of the next assay is Sinapis arvensis (SINAR). Briefly: greenhouse post-emergence herbicidal activity on SINAR.
Description: as §1, §2, §3, §4, §5, §6, §7, §8

Where [10] appears, read: Fallopia convolvulus, 480 h, read-out: % activity 20 DAT.
Setting [11] is: Digitaria sanguinalis, 480 h, read-out: % activity 20 DAT.

With `Cn1nc(C(F)(F)F)c(CS(=O)(=O)C2=NOC(C)(C)C2)c1OC(F)F` [pyroxasulfone, 3-[5-(difluoromethoxy)-1-methyl-3-(trifluoromethyl)pyrazol-4-ylmethylsulfonyl]-4,5-dihydro-5,5-dimethyl-1,2-oxazole], the inhibition at 12.5 g/ha in the assay on Setaria viridis (SETVI) (solo application, 12.5 g ai/ha) turned out to be 70%; in assay [1] (Echinochloa crus-galli, 480 h, solo application, 12.5 g ai/ha, read-out: % activity 20 DAT), 75%; in [2] (Fallopia convolvulus, 480 h, solo application, 12.5 g ai/ha, read-out: % activity 20 DAT) it was 35%; in assay [3] (Alopecurus myosuroides, 480 h, solo application, 12.5 g ai/ha, read-out: % activity 20 DAT) it was 30%; in assay [4] (Digitaria sanguinalis, 480 h, solo application, 12.5 g ai/ha, read-out: % activity 20 DAT), 40%; in [5] (Abutilon theophrasti, 480 h, solo application, 12.5 g ai/ha, read-out: % activity 20 DAT), 40%. The inhibition at 12.5 g/ha was 0% in assay [6] (Matricaria, 480 h, solo application, 12.5 g ai/ha, read-out: % activity 20 DAT); 75% in [7] (solo application, 12.5 g ai/ha); 20% in assay [8] (Chenopodium album, 480 h, solo application, 12.5 g ai/ha, read-out: % activity 20 DAT); 50% in assay [9] (Lolium multiflorum, 480 h, solo application, 12.5 g ai/ha, read-out: % activity 20 DAT); 65% in the assay on Sinapis arvensis (SINAR) (Mutarda arvensis, 480 h, solo application, 12.5 g ai/ha, read-out: % activity 20 DAT). For the same compound, the inhibition at 25 g/ha in assay [2] (Fallopia convolvulus, 480 h, solo application, 25 g ai/ha, read-out: % activity 20 DAT) came out at 50%; in assay [3] (Alopecurus myosuroides, 480 h, solo application, 25 g ai/ha, read-out: % activity 20 DAT), 50%; with Galium aparine (GALAP) (Galium aparine, 480 h, 25 g ai/ha, read-out: % activity 20 DAT), 80%; in [4] (Digitaria sanguinalis, 480 h, solo application, 25 g ai/ha, read-out: % activity 20 DAT), 50%; with Avena fatua (AVEFA) (solo application, 25 g ai/ha) it was 75%; in [6] (Matricaria, 480 h, solo application, 25 g ai/ha, read-out: % activity 20 DAT) it was 0%. Further, the inhibition at 25 g/ha in assay [9] (Lolium multiflorum, 480 h, solo application, 25 g ai/ha, read-out: % activity 20 DAT) was 50%. Also, the inhibition at 50 g/ha in assay [2] (Fallopia convolvulus, 480 h, solo application, 50 g ai/ha, read-out: % activity 20 DAT) worked out at 50%; in [3] (Alopecurus myosuroides, 480 h, solo application, 50 g ai/ha, read-out: % activity 20 DAT) it was 50%; in assay [5] (Abutilon theophrasti, 480 h, solo application, 50 g ai/ha, read-out: % activity 20 DAT), 70%; in assay [8] (Chenopodium album, 480 h, solo application, 50 g ai/ha, read-out: % activity 20 DAT), 20%. Besides, the inhibition at 100 g/ha in assay [2] (Fallopia convolvulus, 480 h, solo application, 100 g ai/ha, read-out: % activity 20 DAT) is 65%; in assay [6] (Matricaria, 480 h, solo application, 100 g ai/ha, read-out: % activity 20 DAT), 15%. Further, the “% activity 20 DAT” value was 40% in [3] (solo application, 12.5 g ai/ha); 70% in assay [3] (solo application, 25 g ai/ha); 70% and 40% in the assay on Galium aparine (GALAP) (12.5 g ai/ha); 85% in the assay on Galium aparine (GALAP) (25 g ai/ha); 60% in assay [5] (solo application, 12.5 g ai/ha); 65% in [5] (solo application, 25 g ai/ha). Also, the “% activity 20 DAT” value was 35% in [8] (solo application, 12.5 g ai/ha) and 55% in assay [9] (solo application, 12.5 g ai/ha).
Consider `O=C(O)CNCP(=O)(O)O` [glyphosate, N-(phosphonomethyl)glycine], for which the inhibition at 50 g/ha in the assay with Setaria viridis (SETVI) was 70%; in assay [1] (Echinochloa crus-galli, 480 h, read-out: % activity 20 DAT), 30%; in [2] (setting [10]), 30%; in assay [3] (Alopecurus myosuroides, 480 h, read-out: % activity 20 DAT, post-emergence, solo application, 50 g ai/ha), 20%; in assay [4] (setting [11]), 70%; in [5] (Abutilon theophrasti, 480 h, read-out: % activity 20 DAT, post-emergence, solo application, 50 g ai/ha), 0%. The inhibition at 50 g/ha was 90% in assay [7]; 40% in [8] (Chenopodium album, 480 h, read-out: % activity 20 DAT, post-emergence, solo application, 50 g ai/ha); 40% in assay [9] (Lolium multiflorum, 480 h, read-out: % activity 20 DAT, post-emergence, solo application, 50 g ai/ha); 80% with Sinapis arvensis (SINAR) (Mutarda arvensis, 480 h, read-out: % activity 20 DAT). Further, the inhibition at 100 g/ha amounted to 50% in [2] (setting [10]); 40% in assay [3] (Alopecurus myosuroides, 480 h, read-out: % activity 20 DAT, post-emergence, solo application, 100 g ai/ha); 85% in assay [4] (setting [11]); 45% in the assay on Avena fatua (AVEFA); 90% in assay [6] (Matricaria, 480 h, read-out: % activity 20 DAT, post-emergence, solo application, 100 g ai/ha); 75% in assay [9] (Lolium multiflorum, 480 h, read-out: % activity 20 DAT, post-emergence, solo application, 100 g ai/ha). The inhibition at 200 g/ha in assay [2] (setting [10]) is 50%; in assay [3] (Alopecurus myosuroides, 480 h, read-out: % activity 20 DAT, post-emergence, solo application, 200 g ai/ha) it was 85%; in [5] (Abutilon theophrasti, 480 h, read-out: % activity 20 DAT, post-emergence, solo application, 200 g ai/ha), 70%; in [8] (Chenopodium album, 480 h, read-out: % activity 20 DAT, post-emergence, solo application, 200 g ai/ha), 80%. The inhibition at 400 g/ha in assay [2] (setting [10]) came out at 90%; in assay [6] (Matricaria, 480 h, read-out: % activity 20 DAT, post-emergence, solo application, 400 g ai/ha) it was 95%. In addition, the “% activity 20 DAT” value in assay [3] (solo application, 50 g ai/ha) was 15%; in assay [3] (solo application, 100 g ai/ha), 30%; in the assay on Galium aparine (GALAP) (50 g ai/ha), 10%; in assay [6] (solo application, 50 g ai/ha), 65%; in [8] (solo application, 50 g ai/ha), 30%; in [8] (solo application, 100 g ai/ha), 50% and 85%. Moreover, the “% activity 20 DAT” value in assay [9] (solo application, 50 g ai/ha) is recorded as 45%.
As for `COC[C@H](C)N(C(=O)CCl)c1c(C)csc1C` [dimethenamid-P], the “% activity 20 DAT” value in assay [3] (solo application, 270 g ai/ha) is given as 20%; in assay [3] (solo application, 540 g ai/ha) it was 30%; in [4] (solo application, 135 g ai/ha), 50%; in [4] (solo application, 270 g ai/ha) it was 50%; in assay [5] (solo application, 135 g ai/ha), 15%; in assay [5] (solo application, 540 g ai/ha) it was 15%. Besides, the “% activity 20 DAT” value in assay [6] (solo application, 135 g ai/ha) was found to be 0%; in assay [6] (solo application, 270 g ai/ha), 0%; in [8] (solo application, 270 g ai/ha), 20%; in assay [9] (solo application, 135 g ai/ha), 60%; with Sinapis arvensis (SINAR) (solo application, 135 g ai/ha) it was 45%.
Regarding `CC(C)N(C)S(=O)(=O)NC(=O)c1cc(-n2c(=O)cc(C(F)(F)F)n(C)c2=O)c(F)cc1Cl` [saflufenacil], the “% activity 20 DAT” value is 0% in [1] (solo application, 1.56 g ai/ha); 45% in [2] (solo application, 1.56 g ai/ha); 55% in [2] (solo application, 3.13 g ai/ha); 0% in [3] (solo application, 1.56 g ai/ha); 0% in [3] (solo application, 3.13 g ai/ha); 30% in the assay with Galium aparine (GALAP) (3.13 g ai/ha). Besides, the “% activity 20 DAT” value is on record as 0% in assay [4] (solo application, 1.56 g ai/ha); 45% in assay [5] (solo application, 1.56 g ai/ha); 20% in [6] (solo application, 1.56 g ai/ha); 55% in assay [6] (solo application, 3.13 g ai/ha); 40% in assay [8] (solo application, 1.56 g ai/ha).
